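96-well plates; 48 h exposure; 5 concentrations. Endpoints by linear interpolation between flanking doses. Not reached: highest tested concentration assigned. Abbreviation: GI50, concentration required for 50% inhibition of growth.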 Calls of active or inactive are those of the source. Rule as the data show it: active = GI50 up to about 1.1 µM and inactive = higher.
What was measured:
Assay in all cases: growth of human tumour cells (NCI), 48 h
T47D = system: T47D
CCRF-CEM = system: CCRF-CEM
SK-MEL-28 = system: SK-MEL-28
786-0 = system: 786-0
SN12C = system: SN12C
M14 = system: M14
OVCAR-4 = system: OVCAR-4
RPMI-8226 = system: RPMI-8226
A549 = system: A549
SW-620 = system: SW-620
ACHN = system: ACHN
NCI/ADR-RES = system: NCI/ADR-RES
HCC 2998 = system: HCC 2998
UACC-62 = system: UACC-62
NCI-H522 = system: NCI-H522
HOP-62 = system: HOP-62
NCI-H460 = system: NCI-H460
NCI-H23 = system: NCI-H23
OVCAR-3 = system: OVCAR-3

Structure (SMILES)	GI50 (T47D)	GI50 (CCRF-CEM)	GI50 (SK-MEL-28)	GI50 (786-0)	GI50 (SN12C)	GI50 (M14)	GI50 (OVCAR-4)	GI50 (RPMI-8226)	GI50 (A549)	GI50 (SW-620)	GI50 (ACHN)	GI50 (NCI/ADR-RES)	GI50 (HCC 2998)	GI50 (UACC-62)	GI50 (NCI-H522)	GI50 (HOP-62)	GI50 (NCI-H460)	GI50 (NCI-H23)	GI50 (OVCAR-3)
O=C1c2ccccc2C(=O)[C@@]23O[C@@]12C1(Oc2cccc4cccc(c24)O1)[C@@H]1O[C@@H]1[C@@H]3O	9.16 µM (inactive)	1.76 µM (inactive)	20.6 µM (inactive)	4.23 µM (inactive)	11.6 µM (inactive)	8.97 µM (inactive)	4.19 µM (inactive)	2.68 µM (inactive)	18.4 µM (inactive)	6.93 µM (inactive)	12.5 µM (inactive)	5.05 µM (inactive)	6.17 µM (inactive)	14.2 µM (inactive)	3.36 µM (inactive)	12.6 µM (inactive)	9.86 µM (inactive)	13.6 µM (inactive)	4.65 µM (inactive)
OCCN(C1=NCCN1)/[N+](=C\c1ccccn1)[CH-]c1ccccn1	> 100 µM (inactive)	> 100 µM (inactive)	> 100 µM (inactive)	> 100 µM (inactive)	> 100 µM (inactive)	> 100 µM (inactive)	> 100 µM (inactive)	12.1 µM (inactive)	> 100 µM (inactive)	> 100 µM (inactive)	> 100 µM (inactive)	> 100 µM (inactive)	> 100 µM (inactive)	> 100 µM (inactive)	> 100 µM (inactive)	> 100 µM (inactive)	> 100 µM (inactive)	> 100 µM (inactive)	> 100 µM (inactive)
NCCSCCC(=O)O	> 33.5 µM (inactive)	23 µM (inactive)	37.9 µM (inactive)	> 38.1 µM (inactive)	> 43.1 µM (inactive)	> 74.8 µM (inactive)	> 100 µM (inactive)	25.8 µM (inactive)	> 69.2 µM (inactive)	19.7 µM (inactive)	> 25.6 µM (inactive)	> 69.8 µM (inactive)	28.6 µM (inactive)	> 45.4 µM (inactive)	> 66.1 µM (inactive)	> 68.5 µM (inactive)	> 12.4 µM (inactive)	> 25.8 µM (inactive)	> 100 µM (inactive)
Cc1cccc2cc3ccc4ccccc4c3cc12	22.1 µM (inactive)	20.1 µM (inactive)	> 100 µM (inactive)	41.7 µM (inactive)	51.6 µM (inactive)	48.5 µM (inactive)	47.3 µM (inactive)	34.6 µM (inactive)	37.1 µM (inactive)	44 µM (inactive)	46.7 µM (inactive)	> 100 µM (inactive)	19.9 µM (inactive)	80.9 µM (inactive)	27.9 µM (inactive)	68.4 µM (inactive)	25.4 µM (inactive)	54.5 µM (inactive)	63.2 µM (inactive)
COc1cc([C@H]2CC(=O)C[C@@H](c3cc(OC)c(OC)c(OC)c3)C23C(=O)c2ccccc2C3=O)cc(OC)c1OC	> 100 µM (inactive)	> 100 µM (inactive)	> 100 µM (inactive)	> 100 µM (inactive)	> 100 µM (inactive)	> 100 µM (inactive)	> 100 µM (inactive)	> 100 µM (inactive)	> 100 µM (inactive)	> 100 µM (inactive)	> 100 µM (inactive)	> 100 µM (inactive)	> 100 µM (inactive)	> 100 µM (inactive)	> 100 µM (inactive)	> 100 µM (inactive)	> 100 µM (inactive)	> 100 µM (inactive)	> 100 µM (inactive)
C=CCOc1ccccc1/N=N/C(C#N)=N\Nc1ccccc1OCC=C	> 100 µM (inactive)	> 100 µM (inactive)	> 100 µM (inactive)	> 100 µM (inactive)	> 100 µM (inactive)	> 100 µM (inactive)	> 100 µM (inactive)	> 100 µM (inactive)	> 100 µM (inactive)	> 100 µM (inactive)	> 100 µM (inactive)	> 100 µM (inactive)	48.1 µM (inactive)	> 100 µM (inactive)	> 100 µM (inactive)	> 100 µM (inactive)	> 100 µM (inactive)	> 100 µM (inactive)	> 100 µM (inactive)
CC(C)(C)OC(=O)C1CCC/C1=N/Nc1ccc([N+](=O)[O-])cc1[N+](=O)[O-] (stereo not drawn)	16.3 µM (inactive)	19.7 µM (inactive)	54.7 µM (inactive)	23 µM (inactive)	40.7 µM (inactive)	39.6 µM (inactive)	74.5 µM (inactive)	32 µM (inactive)	31.9 µM (inactive)	27.9 µM (inactive)	45.3 µM (inactive)	26.1 µM (inactive)	42.9 µM (inactive)	26.9 µM (inactive)	18.8 µM (inactive)	45.6 µM (inactive)	37.9 µM (inactive)	18 µM (inactive)	46.6 µM (inactive)
CC1(C)OC(=C(C#N)C#N)C(C#N)=C1/C=C/c1ccncc1	2.48 µM (inactive)	0.851 µM (active)	2.39 µM (inactive)	2.03 µM (inactive)	2.39 µM (inactive)	2.56 µM (inactive)	2.96 µM (inactive)	1.65 µM (inactive)	11.4 µM (inactive)	2.27 µM (inactive)	1.87 µM (inactive)	2.03 µM (inactive)	4.9 µM (inactive)	1.95 µM (inactive)	2.05 µM (inactive)	1.66 µM (inactive)	6.53 µM (inactive)	2.35 µM (inactive)	1.84 µM (inactive)
COc1ccc(C2C(C#N)=C(S)N(C3OC(COC(C)=O)C(OC(C)=O)C(OC(C)=O)C3OC(C)=O)C(c3ccccc3)=C2C(C)=O)cc1 (stereo not drawn)	17.3 µM (inactive)	> 100 µM (inactive)	> 100 µM (inactive)	> 100 µM (inactive)	> 100 µM (inactive)	> 100 µM (inactive)	> 100 µM (inactive)	92 µM (inactive)	> 100 µM (inactive)		> 100 µM (inactive)	> 100 µM (inactive)	> 100 µM (inactive)	41.8 µM (inactive)	61.4 µM (inactive)	> 100 µM (inactive)	> 100 µM (inactive)	> 100 µM (inactive)	> 100 µM (inactive)
O=C1/C(=C/c2ccc(O)c([N+](=O)[O-])c2)CCC/C1=C\c1ccc(O)c([N+](=O)[O-])c1	14.9 µM (inactive)	30 µM (inactive)	7.5 µM (inactive)	11.5 µM (inactive)	11.4 µM (inactive)	10.8 µM (inactive)	18.9 µM (inactive)	13.1 µM (inactive)	11.7 µM (inactive)	10.2 µM (inactive)	7.96 µM (inactive)	19.2 µM (inactive)	8.69 µM (inactive)	7.23 µM (inactive)	8.93 µM (inactive)	12.5 µM (inactive)	17.8 µM (inactive)	12.3 µM (inactive)	8.36 µM (inactive)
CCC(=O)N1NC(=O)C(CC)(CC)C1=O	> 100 µM (inactive)	> 100 µM (inactive)	> 100 µM (inactive)	> 100 µM (inactive)	> 100 µM (inactive)	> 100 µM (inactive)	> 100 µM (inactive)	> 100 µM (inactive)	> 100 µM (inactive)	> 100 µM (inactive)	> 100 µM (inactive)	> 100 µM (inactive)	> 100 µM (inactive)	> 100 µM (inactive)	> 100 µM (inactive)	> 100 µM (inactive)	> 100 µM (inactive)	> 100 µM (inactive)	> 100 µM (inactive)
COc1ccc(N[S+]([O-])c2ccccc2OC)cc1 (stereo not drawn)	4.37 µM (inactive)	26.1 µM (inactive)	54.8 µM (inactive)	43.3 µM (inactive)	> 100 µM (inactive)	33.3 µM (inactive)	53.7 µM (inactive)	18.7 µM (inactive)	16.2 µM (inactive)	22.7 µM (inactive)	20.4 µM (inactive)	15.9 µM (inactive)	> 10 µM (inactive)	2.07 µM (inactive)	5.26 µM (inactive)	37.2 µM (inactive)	16 µM (inactive)	40.8 µM (inactive)	61.4 µM (inactive)
COc1cc(OC)c(OC)cc1/C=C/c1cnnc2ccccc12	> 10 µM (inactive)	> 10 µM (inactive)	> 10 µM (inactive)	> 10 µM (inactive)	> 10 µM (inactive)	> 10 µM (inactive)	> 10 µM (inactive)	> 10 µM (inactive)	> 10 µM (inactive)	> 10 µM (inactive)	> 10 µM (inactive)	> 10 µM (inactive)	> 10 µM (inactive)	> 10 µM (inactive)	> 10 µM (inactive)	> 10 µM (inactive)	> 10 µM (inactive)	> 10 µM (inactive)	> 10 µM (inactive)
C[S+](C)CC(=O)c1ccc2c(c1)Sc1ccccc1O2	9.57 µM (inactive)	5.27 µM (inactive)	7.89 µM (inactive)	2.72 µM (inactive)	6.34 µM (inactive)	0.755 µM (active)	3.44 µM (inactive)	2.59 µM (inactive)	5.68 µM (inactive)	2.33 µM (inactive)	5.78 µM (inactive)	6.55 µM (inactive)	2.64 µM (inactive)	3.91 µM (inactive)	1.09 µM (active)	13.2 µM (inactive)	5.3 µM (inactive)	3.49 µM (inactive)	2.4 µM (inactive)
C=CCn1cnc2c(O)nc(Nc3ccccc3)nc21	> 100 µM (inactive)	> 100 µM (inactive)	> 100 µM (inactive)	> 100 µM (inactive)	> 100 µM (inactive)	> 100 µM (inactive)	> 100 µM (inactive)	> 100 µM (inactive)	> 100 µM (inactive)	> 100 µM (inactive)	> 100 µM (inactive)	> 100 µM (inactive)	> 100 µM (inactive)	> 100 µM (inactive)	> 100 µM (inactive)	> 100 µM (inactive)	> 100 µM (inactive)		> 100 µM (inactive)

From ChEMBL document CHEMBL1201862, “PubChem BioAssay data set” (2004)
